The assay can be described thus: Cytotoxicity against human 9KB cells. Format: functional. To be noted: read-out: ED50 (the source's name).

The structures appear in SMILES notation. Converted amounts (≈) assume the structure as drawn.

Consider `C=C1C(=O)O[C@H]2[C@H]1[C@@H](OC(=O)[C@](C)(O)CCl)CC(=C)[C@@H]1C[C@H](O)[C@](O)(CCl)[C@H]21` [CENTAUREPENSIN], for which the EC50 amounted to 1.7 µg/mL (≈ 3.91 µM).

These data come from ChEMBL document CHEMBL1158651, “Centaurepensin: A Cytotoxic Constituent of Centaurea solstitialis and C. repens (Asteraceae)” (1979).
